Values joined by “and” are separate entries in the source; they are usually repeats but may differ in a detail not shown here. Equal values may be shown once.
System: 616215-338-R-J1-PDC complex spheroids, viability % test/control
Assay: Anticancer human tumor 616215-338-R-J1-PDC patient-derived colon adenocarcinoma cell line growth inhibition [CLK]
Conditions: for viability, T/C: stronger effect = lower value
Procedure, shortened: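 Multi-cell-type spheroids combined patient-derived tumor cells with HUVEC endothelial cells and human mesenchymal stem cells. Paired agents were dosed in half-log steps down from about clinical Cmax, or from 10 microM where Cmax was unknown.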

[1] = curve of first compound, second compound 0.0316 µM
[2] = curve of first compound, second compound 0.1 µM
[3] = curve of first compound, second compound 0.316 µM
[4] = curve of first compound, second compound 1 µM
[5] = curve of first compound, second compound 3.16 µM
[6] = curve of first compound, second compound 10 µM
[7] = second compound 0.0316 µM, first compound 0.0316 µM
[8] = second compound 0.0316 µM, first compound 0.1 µM
[9] = second compound 0.0316 µM, first compound 0.316 µM
[10] = second compound 0.0316 µM, first compound 1 µM
[11] = second compound 0.1 µM, first compound 0.0316 µM
[12] = second compound 0.1 µM, first compound 0.1 µM
[13] = second compound 0.1 µM, first compound 0.316 µM
[14] = second compound 0.1 µM, first compound 1 µM
[15] = second compound 0.316 µM, first compound 0.0316 µM
[16] = second compound 0.316 µM, first compound 0.1 µM
[17] = second compound 0.316 µM, first compound 0.316 µM
[18] = second compound 0.316 µM, first compound 1 µM
[19] = second compound 1 µM, first compound 0.0316 µM
[20] = second compound 1 µM, first compound 0.1 µM
[21] = second compound 1 µM, first compound 0.316 µM
[22] = second compound 1 µM, first compound 1 µM
[23] = second compound 3.16 µM, first compound 0.0316 µM
[24] = second compound 3.16 µM, first compound 0.1 µM
[25] = second compound 3.16 µM, first compound 0.316 µM
[26] = second compound 3.16 µM, first compound 1 µM
[27] = second compound 10 µM, first compound 0.0316 µM
[28] = second compound 10 µM, first compound 0.1 µM
[29] = second compound 10 µM, first compound 0.316 µM
[30] = second compound 10 µM, first compound 1 µM
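Note: spheroids exposed to agents for 7 days.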
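Throughout, for viability, T/C: 100% = DMSO vehicle wells.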

For `Nc1ccn(C2OC(CO)C(O)C2(F)F)c(=O)n1` (configuration not stated) + CNC(=O)c1ccc(Nc2nc(OC3CCCC3)c3c(-c4ccc5nc(C)oc5c4)c[nH]c3n2)c(OC)c1, the IC50 [1] was under 31.6 nM, the IC50 [2] was under 31.6 nM and the IC50 [3] was under 31.6 nM. For the same compound, the IC50 [4] was under 31.6 nM, the IC50 [5] was under 31.6 nM and the IC50 [6] was under 31.6 nM. The viability, T/C [7] was 21.9%, the viability, T/C [8] was 14.5% and the viability, T/C [9] was 18.9%. The viability, T/C [10] was 14.9%, the viability, T/C (second compound 0.0316 µM, first compound 3.16 µM) was 20.3% and the viability, T/C (second compound 0.0316 µM, first compound 10 µM) was 18.9%. It also gave a viability, T/C [11] of 18.2%, a viability, T/C [12] of 18.4% and a viability, T/C [13] of 16.8%. For the same compound, the viability, T/C [14] was 14.6%, the viability, T/C (second compound 0.1 µM, first compound 3.16 µM) was 21% and the viability, T/C (second compound 0.1 µM, first compound 10 µM) was 17.4%. For the same compound, the viability, T/C [15] was 22.1%, the viability, T/C [16] was 17.2% and the viability, T/C [17] was 18.1%. It also gave a viability, T/C [18] of 17.1%, a viability, T/C (second compound 0.316 µM, first compound 3.16 µM) of 18.7% and a viability, T/C (second compound 0.316 µM, first compound 10 µM) of 20.2%. It also gave a viability, T/C [19] of 18.7%, a viability, T/C [20] of 15.9% and a viability, T/C [21] of 16.9%. It also gave a viability, T/C [22] of 17.8%, a viability, T/C (second compound 1 µM, first compound 3.16 µM) of 16.6% and a viability, T/C (second compound 1 µM, first compound 10 µM) of 15.6%. It also gave a viability, T/C [23] of 19.1%, a viability, T/C [24] of 15.8% and a viability, T/C [25] of 18.6%. For the same compound, the viability, T/C [26] was 18.1%, the viability, T/C (second compound 3.16 µM, first compound 3.16 µM) was 21.9% and the viability, T/C (second compound 3.16 µM, first compound 10 µM) was 18.3%. It also gave a viability, T/C [27] of 21.8%, a viability, T/C [28] of 15% and a viability, T/C [29] of 18.6%. For the same compound, the viability, T/C [30] was 18.2%, the viability, T/C (second compound 10 µM, first compound 3.16 µM) was 23.1% and the viability, T/C (second compound 10 µM, first compound 10 µM) was 17.9%.

For `COC1C=CCC(C)C(C)S(=O)(=O)NC(=O)c2ccc3c(c2)N(CC2CCC21)CC1(CCCc2cc(Cl)ccc21)CO3` (configuration not stated), the viability, T/C (compound 0.0316 µM) was 42.2% and 92.1%, the viability, T/C (compound 0.1 µM) was 33.1% and 98.1% and the viability, T/C (compound 0.316 µM) was 95.7% and 96.9%. For the same compound, the viability, T/C (compound 1 µM) was 104% and 101%, the viability, T/C (compound 3.16 µM) was 38.7% and 103% and the IC50 (curve of compound) was 2050 nM and > 10000 nM.

Compound `COc1c(OCCCN2CCOCC2)ccc2c3n(c(=NC(=O)c4cnc(N)nc4)nc12)CCN3` + CN1CCN(c2cc(C(=O)Nc3cc4cc(-c5cnn(C)c5)ccc4cn3)ccn2)CC1 has an IC50 [1] of 86.6 nM, an IC50 [2] of 36.2 nM and an IC50 [3] of under 3.16 nM. For the same compound, the IC50 [4] was under 3.16 nM, the IC50 [5] was under 3.16 nM and the IC50 [6] was under 3.16 nM. It also gave a viability, T/C (second compound 0.0316 µM, first compound 0.00316 µM) of 105%, a viability, T/C (second compound 0.0316 µM, first compound 0.01 µM) of 115% and a viability, T/C [7] of 89.8%. The viability, T/C [8] was 44%, the viability, T/C [9] was 30.8% and the viability, T/C [10] was 21.6%. For the same compound, the viability, T/C (second compound 0.1 µM, first compound 0.00316 µM) was 110%, the viability, T/C (second compound 0.1 µM, first compound 0.01 µM) was 94.4% and the viability, T/C [11] was 50.1%. The viability, T/C [12] was 29.1%, the viability, T/C [13] was 19.1% and the viability, T/C [14] was 12.3%. It also gave a viability, T/C (second compound 0.316 µM, first compound 0.00316 µM) of 26.4%, a viability, T/C (second compound 0.316 µM, first compound 0.01 µM) of 25.1% and a viability, T/C [15] of 11.8%. It also gave a viability, T/C [16] of 6.03%, a viability, T/C [17] of 4.47% and a viability, T/C [18] of 4.01%. It also gave a viability, T/C (second compound 1 µM, first compound 0.00316 µM) of 0.24%, a viability, T/C (second compound 1 µM, first compound 0.01 µM) of 1.7% and a viability, T/C [19] of 0.49%. It also gave a viability, T/C [20] of 0.1%, a viability, T/C [21] of 0.08% and a viability, T/C [22] of 1.24%. The viability, T/C (second compound 3.16 µM, first compound 0.00316 µM) was 0.1%, the viability, T/C (second compound 3.16 µM, first compound 0.01 µM) was 2.88% and the viability, T/C [23] was 0.11%. For the same compound, the viability, T/C [24] was 0.1%, the viability, T/C [25] was 1.07% and the viability, T/C [26] was 0.15%. The viability, T/C (second compound 10 µM, first compound 0.00316 µM) was 0.12%, the viability, T/C (second compound 10 µM, first compound 0.01 µM) was 0.15% and the viability, T/C [27] was 0.98%. The viability, T/C [28] was 0.33%, the viability, T/C [29] was 0.17% and the viability, T/C [30] was 1.41%.

In the case of `COc1ccc([C@@H](O)c2cc(-c3ncnc4cc(N5CCOCC5)ccc34)c(F)cc2Cl)nn1`, the viability, T/C (compound 0.0316 µM) is reported as 102% and 93.5%, the viability, T/C (compound 0.1 µM) is reported as 106% and 104% and the viability, T/C (compound 0.316 µM) is reported as 111% and 108%. For the same compound, the viability, T/C (compound 1 µM) was 107% and 99.3%, the viability, T/C (compound 3.16 µM) was 112% and 118% and the viability, T/C (compound 10 µM) was 77.8% and 78.4%. It also gave an IC50 (curve of compound) of over 10000 nM.

— PubChem BioAssay AID2060610 (Molecular Pharmacology Branch, DTP, NCI, 2025)
